This is an account of results in paper PMC9616048, “Thermal proteome profiling reveals Haemonchus orphan protein HCO_011565 as a target of the nematocidal small molecule UMW-868” (Frontiers in Pharmacology, 2022).

In this data set the test system is A. ceylanicum in hamsters. As to the kind of experiment: In vivo activity against A. ceylanicum in hamsters. Set-up: species or system Ancylostoma ceylanicum. How it is done:
Candidate compound(s) were tested for their effect on other nematode species (He. polygyrus and A. ceylanicum) in infected rodents.
For He. polygyrus, four NMRI mice (3 weeks old; female) were infected orally with 88 He. polygyrus L3s, and immunosuppressed with 0.25 mg/ml dexamethasone (Sigma-Aldrich), in the drinking water, until 2 days prior to treatment ([Mes et al., 2007]). For A. ceylanicum, four Syrian golden hamsters (3 weeks old; male) were infected orally with 300 L3s without immunosuppression ([Tritten et al., 2012]). Fourteen days or 23 days after the infection, mice and hamsters, respectively, were treated orally with UMW-868 at dosages of 100 mg/kg bw (mice and hamsters). Four each of untreated mice and hamsters served as placebo controls. Six to 7 days post-treatment with the compound, all animals were euthanised by CO2 (hamsters being initially narcotised using isoflurane), and the intestine was dissected. The live adult worms were collected and counted to calculate the worm burden reductions and worm expulsion rates. The worm burden reduction was calculated using the mean number of live worms for the treated group and establishing the differences, in a percentage, with reference to the untreated control group.

[1] abbreviates: hamster, A. ceylanicum, 100 mg/kg single oral dose.

Consider `CCCc1ccc(-c2nc(-c3cccs3)no2)cc1` [UMW-868, 5-(4-propylphenyl)-3-(2-thienyl)-1,2,4-oxadiazole], for which, under setting [1], the “Mean no. of worms (SD)” value is recorded as 4.8 (1.0) and the “Reduction in infection intensity (%)” value was determined as 48%. The “acute toxicity and pathological changes in treated animals” value (hamsters, single oral dose, post-mortem examination) is reported as “neither evidence of acute toxicity”.
